Reference: article PMC9203742 (Nature Communications, 2022)
Values joined by “and” are separate entries in the source; they are usually repeats but may differ in a detail not shown here. Identical values can stand only once.

What was measured:
[1] = tested on: GFP-positive Purkinje cells infected with AAV-L7-mGlu1^CBC; assay: chemLTD recording in GFP-positive Purkinje cells, slices infected with AAV-L7-mGlu1^CBC; format: cell-based, mouse; conditions: for PF-EPSC amplitude normalized to time 0, individual Purkinje cells / PF-EPSC amplitude normalized to time 0, mean of cells: AAV-L7-mGlu1CBC
[2] = tested on: MLIs infected with AAV-hSyn-mGlu1^CBC; assay: sAP-mediated currents (firing rate) of MLIs infected with AAV-hSyn-mGlu1^CBC; format: cell-based, mouse; conditions: 10 μM Pd(sulfo-bpy); P = 4.613 × 10^–5
Procedure: To monitor the excitability of MLIs, sAP-mediated current responses were extracellulary recorded by a loose cell-attached voltage-clamp at a holding potential of 0 mV. Glass electrodes used for cell-attached recordings had resistances of 3–5 MΩ when filled with ACSF. The current recordings from AAV-infected cells were performed 1−2 weeks after infection. The EPSCs and sAP-mediated currents were recorded using an Axopatch 200B amplifier (Molecular Devices), and the pClamp system (version 9.2; Molecular Devices) was used for data acquisition and analysis. The signals were filtered at 1 kHz and digitized at 4 kHz for the evoked EPSCs and 10 kHz for the sAP-mediated currents.
Injection of viral solutions was performed as described previously with slight modifications. Briefly, under deep anesthesia, with an intraperitoneal injection of medetomidine (0.3 mg/kg), midazolam (4.0 mg/kg), and butorphanol (5.0 mg/kg), 4 µL of the solutions containing AAV mixture were directly injected into the vermis of cerebellar lobules V-VIII (200-300 µm in depth, 12 µL/h in rate) of WT mice (C57BL/6J, P20-P30) using glass pipette (30–40 µm in diameter) and microinjector (Nanoliter; World Precision Instruments). In all, 1−2 week after injection, the mice were used for each experiment.

mGlu1(N264H) mutant = target: T1, mGlu1(N264H) mutant (Rattus norvegicus, UniProt P23385, N264H); assay: Fura-2 Ca2+ imaging in HEK293 cells expressing mGlu1(N264H); format: cell-based
T1 construct: expressed in transfected cells; host or cells: HEK293
T1 sequence (P23385 19-1199 N264H): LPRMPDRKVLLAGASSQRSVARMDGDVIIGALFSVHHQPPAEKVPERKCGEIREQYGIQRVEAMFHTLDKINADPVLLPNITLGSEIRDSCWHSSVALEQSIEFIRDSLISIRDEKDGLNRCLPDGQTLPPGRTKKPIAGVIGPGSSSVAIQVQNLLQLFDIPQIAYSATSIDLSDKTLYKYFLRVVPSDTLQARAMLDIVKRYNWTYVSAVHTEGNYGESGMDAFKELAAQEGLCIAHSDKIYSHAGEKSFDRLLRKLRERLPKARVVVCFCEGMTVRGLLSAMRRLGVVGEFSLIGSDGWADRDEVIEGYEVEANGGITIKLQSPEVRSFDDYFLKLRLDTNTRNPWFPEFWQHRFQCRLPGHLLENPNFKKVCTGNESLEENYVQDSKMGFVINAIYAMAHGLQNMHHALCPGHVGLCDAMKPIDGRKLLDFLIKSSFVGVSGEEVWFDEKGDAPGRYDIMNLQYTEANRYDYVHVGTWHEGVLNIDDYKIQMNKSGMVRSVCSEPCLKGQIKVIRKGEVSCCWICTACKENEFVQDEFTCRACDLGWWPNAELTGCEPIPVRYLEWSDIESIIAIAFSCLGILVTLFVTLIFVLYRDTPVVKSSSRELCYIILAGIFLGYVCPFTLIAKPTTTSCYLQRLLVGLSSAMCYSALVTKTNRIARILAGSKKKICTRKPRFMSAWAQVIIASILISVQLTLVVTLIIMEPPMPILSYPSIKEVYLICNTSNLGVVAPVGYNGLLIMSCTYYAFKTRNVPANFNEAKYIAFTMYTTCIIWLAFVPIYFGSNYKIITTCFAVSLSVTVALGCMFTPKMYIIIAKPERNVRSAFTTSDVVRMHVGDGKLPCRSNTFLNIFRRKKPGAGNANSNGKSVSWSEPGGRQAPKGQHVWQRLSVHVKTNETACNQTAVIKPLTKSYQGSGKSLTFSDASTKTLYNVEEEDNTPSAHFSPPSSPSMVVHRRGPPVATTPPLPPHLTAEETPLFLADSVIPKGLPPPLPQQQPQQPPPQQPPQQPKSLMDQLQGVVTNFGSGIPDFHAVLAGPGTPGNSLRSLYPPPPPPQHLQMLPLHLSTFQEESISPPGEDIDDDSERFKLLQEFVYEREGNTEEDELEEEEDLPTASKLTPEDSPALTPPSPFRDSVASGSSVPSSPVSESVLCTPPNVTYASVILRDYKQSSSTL

SMILES: Cc1ccnc(-c2cc(COCCCS(=O)(=O)[O-])ccn2)c1.[Cl][Pd][Cl].[Na+] [Pd(sulfo-bpy)]
- chemLTD: normalized PF-EPSC amplitude ([1]; 1 μM Pd(sulfo-bpy), t = 31−35 min): 66 ± 5%
- PF-EPSC amplitude normalized to time 0, individual Purkinje cells ([1]; Time 11 min): 0.7232 and 0.9829 and 0.3767 and 0.7388 and 0.7918 and 0.8459 and 0.9915
- PF-EPSC amplitude normalized to time 0, mean of cells ([1]; Time 11 min): 0.7787
- PF-EPSC amplitude normalized to time 0, individual Purkinje cells ([1]; Time 12 min): 0.6425 and 0.801 and 0.5915 and 0.6003 and 0.6904 and 0.8371 and 0.8565
- PF-EPSC amplitude normalized to time 0, mean of cells ([1]; Time 12 min): 0.717
- PF-EPSC amplitude normalized to time 0, individual Purkinje cells ([1]; Time 13 min): 0.6471 and 0.7787 and 0.7013 and 0.6809 and 0.7803 and 0.6727 and 0.8538
- PF-EPSC amplitude normalized to time 0, mean of cells ([1]; Time 13 min): 0.7307
- PF-EPSC amplitude normalized to time 0, individual Purkinje cells ([1]; Time 14 min): 0.6499 and 0.8303 and 0.7622 and 0.6113 and 0.7456 and 0.6953 and 0.8046
- PF-EPSC amplitude normalized to time 0, mean of cells ([1]; Time 14 min): 0.7285
- PF-EPSC amplitude normalized to time 0, individual Purkinje cells ([1]; Time 15 min): 0.6409 and 0.6767 and 0.8117 and 0.6223 and 0.7031 and 0.7146 and 0.8496
- PF-EPSC amplitude normalized to time 0, mean of cells ([1]; Time 15 min): 0.717
- PF-EPSC amplitude normalized to time 0, individual Purkinje cells ([1]; Time 16 min): 0.6376 and 0.7978 and 1.028 and 0.6558 and 0.8297 and 0.5765 and 0.8295
- PF-EPSC amplitude normalized to time 0, mean of cells ([1]; Time 16 min): 0.765
- PF-EPSC amplitude normalized to time 0, individual Purkinje cells ([1]; Time 17 min): 0.5747 and 0.6569 and 0.9755 and 0.6298 and 0.8796 and 0.5758 and 0.8309
- PF-EPSC amplitude normalized to time 0, mean of cells ([1]; Time 17 min): 0.7319
- PF-EPSC amplitude normalized to time 0, individual Purkinje cells ([1]; Time 18 min): 0.6181 and 0.7827 and 0.9415 and 0.633 and 0.8865 and 0.5391 and 0.791
- PF-EPSC amplitude normalized to time 0, mean of cells ([1]; Time 18 min): 0.7417
- PF-EPSC amplitude normalized to time 0, individual Purkinje cells ([1]; Time 19 min): 0.6525 and 0.7374 and 0.8732 and 0.5834 and 0.9022 and 0.5765 and 0.7947
- PF-EPSC amplitude normalized to time 0, mean of cells ([1]; Time 19 min): 0.7314
- PF-EPSC amplitude normalized to time 0, individual Purkinje cells ([1]; Time 20 min): 0.6393 and 0.699 and 0.8317 and 0.5962 and 0.9401 and 0.5543 and 0.7516
- PF-EPSC amplitude normalized to time 0, mean of cells ([1]; Time 20 min): 0.716
- PF-EPSC amplitude normalized to time 0, individual Purkinje cells ([1]; Time 21 min): 0.6574 and 0.7237 and 1.073 and 0.5004 and 0.9213 and 0.5453 and 0.8183
- PF-EPSC amplitude normalized to time 0, mean of cells ([1]; Time 21 min): 0.7484
- PF-EPSC amplitude normalized to time 0, individual Purkinje cells ([1]; Time 22 min): 0.698 and 0.6854 and 0.7706 and 0.5876 and 1.007 and 0.5965 and 0.7681
- PF-EPSC amplitude normalized to time 0, mean of cells ([1]; Time 22 min): 0.7305
- PF-EPSC amplitude normalized to time 0, individual Purkinje cells ([1]; Time 23 min): 0.6936 and 0.7382 and 0.9273 and 0.5926 and 0.9601 and 0.5241 and 0.7745
- PF-EPSC amplitude normalized to time 0, mean of cells ([1]; Time 23 min): 0.7443
- PF-EPSC amplitude normalized to time 0, individual Purkinje cells ([1]; Time 24 min): 0.6834 and 0.653 and 0.9054 and 0.6969 and 0.9426 and 0.569 and 0.7678
- PF-EPSC amplitude normalized to time 0, mean of cells ([1]; Time 24 min): 0.7455
- PF-EPSC amplitude normalized to time 0, individual Purkinje cells ([1]; Time 25 min): 0.6421 and 0.6906
- PF-EPSC amplitude normalized to time 0, mean of cells ([1]; Time 25 min): 0.7344
- PF-EPSC amplitude normalized to time 0, mean of cells ([1]; Time 26 min): 0.7041
- PF-EPSC amplitude normalized to time 0, mean of cells ([1]; Time 27 min): 0.6979
- PF-EPSC amplitude normalized to time 0, mean of cells ([1]; Time 28 min): 0.6908
- PF-EPSC amplitude normalized to time 0, mean of cells ([1]; Time 29 min): 0.7115
- PF-EPSC amplitude normalized to time 0, mean of cells ([1]; Time 30 min): 0.7
- PF-EPSC amplitude normalized to time 0, mean of cells ([1]; Time 31 min): 0.6852
- PF-EPSC amplitude normalized to time 0, mean of cells ([1]; Time 32 min): 0.6868
- PF-EPSC amplitude normalized to time 0, mean of cells ([1]; Time 33 min): 0.6788
- PF-EPSC amplitude normalized to time 0, mean of cells ([1]; Time 34 min): 0.6319
- PF-EPSC amplitude normalized to time 0, mean of cells ([1]; Time 35 min): 0.6255
- Firing rate of MLIs [2]: increased the firing rate
- Ca2+ response, concentration dependence (Fig.4f) (mGlu1(N264H) mutant; 0.01 µM Pd complex): 0.001442
- Ca2+ response, concentration dependence (Fig.4f) (mGlu1(N264H) mutant; 0.03 µM Pd complex): -0.01191
- Ca2+ response, concentration dependence (Fig.4f) (mGlu1(N264H) mutant; 0.1 µM Pd complex): -0.00118
- Ca2+ response, concentration dependence (Fig.4f) (mGlu1(N264H) mutant; 0.3 µM Pd complex): 0.1279
- Ca2+ response, concentration dependence (Fig.4f) (mGlu1(N264H) mutant; 1 µM Pd complex): 0.241
- Ca2+ response, concentration dependence (Fig.4f) (mGlu1(N264H) mutant; 3 µM Pd complex): 0.3078
